We go through three molecules from patent publication US20240418723A1, “SEQUENTIAL TREATMENTS AND BIOMARKERS TO REVERSE RESISTANCE TO KINASE INHIBITORS” (Queen Mary University of London, priority 2021, published 2024).

One experiment concerns P31/Fuj AML cells. The experiment can be described thus: Sequential treatment of P31/Fuj cells (ATRA or LSD1 inhibitor 5 days, then MEKi 3 days; also co-treatment and reverse treatment): cell viability, cell number, apoptosis, CDI. To be noted: for drug interaction with MEKi in sequential treatment (CDI): alternative LSD1 inhibitor 5 days then trametinib 3 days, P31/Fuj cells (FIGS. 10 D, E). The class given is cell-based. The procedure:
The Bliss independence model was used to derive coefficients of drug interaction (CDI) values, where CDI <1 indicates significant priming by the […] (synergistic effect).
For the proliferation/viability assays, cells were seeded in T75 flasks (0.5×10^6 cells/mL of RPMI/FBS medium) and exposed for 5 days to either vehicle or epigenetic modifier. Unless otherwise specified, the final concentration for GSK2879552 (LSD1i), […] (EZH2i), pinometostat (DOT1Li) and ATRA was 1 μM while for decitabine (DNMTAi) and vorinostat (HDACi) was 100 nM; all epigenetic inhibitors were diluted in DMSO, while ATRA was diluted in Et-OH. Vehicle concentration was kept at 0.1%. […] The final concentration of DMSO was kept at 0.1%. Finally, cells were transferred to 96-well plates (100 μL per well in 3 technical replicates per condition) and cell viability and proliferation were assessed using Guava and ApoTox-Glo Triplex analyses, as indicated below.
For Guava analysis, cells were stained with Guava ViaCount reagent (Luminex #4000-0040) in 96-well plates, by mixing 150 μL of cell suspension with 75 μL of reagent, and left to incubate for a minimum of 10 minutes in the dark, after which they were processed through a Guava easyCyte flow cytometer (Luminex #0500-5005). Flow cytometry data were analysed using CytoSoft (v2.5.7). Viability and cell number values were expressed relative to vehicle control.
For ApoTox-Glo analysis, cell suspensions were transferred to opaque 96-well plates (100 μL per well) and viability and apoptosis measured using ApoTox-Glo Triplex Assay (Promega #G6320). 20 μL of Viability/Cytotoxicity reagent (containing GF-AFC and bis-AAF-R110 substrates) were added to each well, then incubated at 37° C. for 1 hour. Live cell and cytotoxicity outputs were measured on FLUOstar Omega microplate reader (BMG Labtech). To obtain the live cell output, fluorescence was measured at 355EX/520EM (wavelengths in nm); for the cytotoxicity output, fluorescence was measured at 485EX/520EM. Following this, 100 μL of Caspase-Glo 3/7 reagent were added to each well and incubated at 25° C. for 1 hour. Luminescence was then measured on FLUOstar Omega microplate reader (BMG Labtech). The fluorescence and luminescence signals thus obtained were corrected to the respective background controls (culture medium with no cells). Relative cell number values were obtained by normalising live cell outputs to vehicle control. Apoptosis values were obtained by dividing luminescence outputs to the respective live cell outputs, then normalising to vehicle control.
The extent of drug interaction was calculated in Microsoft Excel 2016 using the CDI formula AB/(A*B), where AB is the normalized reduction in cell viability of the sequential treatment, and A and B are the effects of single treatments. Statistical significance of CDI values for each AML sample was determined using a one sample t-test (base R package) with the null hypothesis being that the mean Log2(CDI) equals 0.

Another experiment relates to P31/Fuj cells. The experiment can be described thus: Phosphoproteomics (LC-MS/MS) and kinase network analysis of treated P31/Fuj cells.

For the molecule `Cl.Cl.NC1CCC(N[C@@H]2C[C@H]2c2ccccc2)CC1` (relative stereo) [ORY-1001, rel-N1-[(1R,2S)-2-phenylcyclopropyl]-1,4-cyclohexanediamine, dihydrochloride], in the experiment with P31/Fuj AML cells, the “drug interaction with MEKi in sequential treatment (CDI)” value is reported as “synergistic interactions with MEKi”.

Consider `CC1=C(/C=C/C(C)=C/C=C/C(C)=C/C(=O)O)C(C)(C)CCC1` [ATRA, all-trans-retinoic acid], for which, in the experiment with P31/Fuj cells (ATRA 1 or 10 μM, 5 days, P31/Fuj cells (FIG. 9B)), the “phosphorylation of the MAPK and PI3K pathway markers ERK1 pY204 and c-MYC pT58/pS62” value was “decreased”. Moreover, the “phosphorylation of CEBPE and LTB4R” value in the experiment on P31/Fuj cells (ATRA 1 or 10 μM, 5 days, dose-dependent manner, P31/Fuj cells (FIG. 9B)) was “increasing”. For the same molecule, in the experiment with P31/Fuj cells (ATRA 5 days, P31/Fuj cells), the “axes containing CDKL5 and stress kinases such as STK4” value is given as “increasing”; the “phosphorylation of MAPK1 and PI3K signaling axes” value is listed as “decreased”. Also, the “sensitisation to MEKi (trametinib) treatment, cell viability” value in the experiment on P31/Fuj AML cells (ATRA pre-treatment for five days, then trametinib, P31/Fuj cells (FIG. 2B)) was “sensitised myeloid P31/Fuj cells to MEKi treatment”.

Turning to `COc1ccc(-c2c(-c3ccc(C#N)c(F)c3)nc(N3CCC(N)CC3)n(C)c2=O)cc1F` [CC-90011], the “drug interaction with MEKi in sequential treatment (CDI)” value in the experiment with P31/Fuj AML cells is “synergistic interactions with MEKi”.
